Source: article PMC8329197, “Compounds targeting OSBPL7 increase ABCA1-dependent cholesterol efflux preserving kidney function in two models of kidney disease” (Nature Communications, 2021)
Several values for one entry are separate records, joined by “and”; a condition that tells them apart may be missing. Identical values can stand only once.

Legend:
human THP1 macrophages = assay: apoAI-mediated (ABCA1) cholesterol efflux from cholesterol-loaded THP1 macrophages; format: cell-based; set-up: ABCA1 Efflux %: dose or concentration left out as unconfirmed; conditions: for ApoA1-mediated Cholesterol Efflux (Fold increase over vehicle control), mean / ApoA1-mediated Cholesterol Efflux (%) / ApoA1-mediated Cholesterol Efflux (Fold increase over vehicle control): 5 µM; for ApoA1-mediated Cholesterol Efflux (Fold increase over vehicle control), mean / ApoA1-mediated Cholesterol Efflux (%) / ApoA1-mediated Cholesterol Efflux (Fold increase over vehicle control) / ABCA1 Efflux active/ inactive: THP1 cells; for ApoA1-mediated Cholesterol Efflux (Fold increase over vehicle control), mean: mean of 3; for ApoA1-mediated Cholesterol Efflux (%) / ApoA1-mediated Cholesterol Efflux (Fold increase over vehicle control): single experiments; for Induction of ABCA1 cholesterol efflux: THP1 cells (Fig. 3a, 4a); for EC50: THP-1, apoAI-dependent cholesterol efflux from human THP1 cells; for ABCA1 percentage of induction, average: average of 3; for ABCA1 Efflux %: average(SEM); for ABCA1 percentage of induction: single experiments (3 per compound); for ABCA1 Efflux active/ inactive: vs. the effect of T1317
[1] = biological target: human cannabinoid 1 receptor (hCB1-R) (Homo sapiens, UniProt P21554); assay: Potency for binding to the CB1R in vitro (Ki); conditions: for Ki: human CB1 receptor binding
human cannabinoid 1 receptor (hCB1-R), sequence (P21554 whole entry): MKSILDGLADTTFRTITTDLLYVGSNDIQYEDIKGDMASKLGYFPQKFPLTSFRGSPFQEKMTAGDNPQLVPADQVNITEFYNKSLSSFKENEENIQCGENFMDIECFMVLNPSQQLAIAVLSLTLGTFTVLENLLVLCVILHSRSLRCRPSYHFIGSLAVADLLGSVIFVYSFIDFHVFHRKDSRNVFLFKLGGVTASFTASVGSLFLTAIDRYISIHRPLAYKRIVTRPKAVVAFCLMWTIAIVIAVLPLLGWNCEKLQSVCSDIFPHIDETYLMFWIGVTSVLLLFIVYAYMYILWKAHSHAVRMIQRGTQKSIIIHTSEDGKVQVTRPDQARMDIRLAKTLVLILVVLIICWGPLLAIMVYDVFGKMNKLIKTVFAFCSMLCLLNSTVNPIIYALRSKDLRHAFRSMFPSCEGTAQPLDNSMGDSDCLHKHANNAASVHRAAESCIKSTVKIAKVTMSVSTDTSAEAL

OSBPL7 = tested on: T1, OSBPL7; assay: Competition with ^3H-Cpd K UV cross-linking to FLAG-tagged OSBPL7 in HEK293 cells (immunoprecipitation, autoradiography); format: binding, human; set-up: OSBP7 percentage of inhibition / OSBP7 percentage of inhibition, average: concentration or dose not given beside the values; OSBPL7 Competition %: dose or concentration left out as unconfirmed; conditions: for OSBP7 percentage of inhibition, average: average of 3; for OSBPL7 Competition %: average(SEM); for OSBP7 percentage of inhibition: single experiments (3 per compound)
T1 construct: Plasmids expressing each as a full-length protein with a C-terminal FLAG tag were obtained; expressed in transfected cells; host or cells: HEK293
Procedure: Briefly, a plasmid expressing a candidate target of interest fused with a FLAG tag was transfected into HEK293 cells. After 24 h, tritiated compound K at a concentration capable of inducing ABCA1-mediated cholesterol efflux (1.0 μM) was added for 3 h, then the live cells were exposed to UV-light (ʎ = 336 nm) to query potential compound/target cross-linking in situ. Cell lysates were prepared, the expressed protein was then selectively immunoprecipitated using an anti-FLAG antibody coupled to sepharose beads, bound proteins were separated by SDS-PAGE, and two identical blots were prepared and probed by western blot and by autoradiography to detect protein expression and presence or absence of compound crosslinking, respectively. The flow chart of this screen is illustrated in Fig. 2. Figure 2d illustrates the ability of Cpd A and Cpd G to displace tritiated Cpd K from overexpressed and immunoprecipitated OSBPL7. Figure 3b illustrates the use of this assay to detect binding of tritiated Cpd K to overexpressed and immunoprecipitated variants of OSBPL7 containing point mutations in the predicted oxysterol binging pocket of OSBPL7. The advantages of this method are: i. the use of plasmid transfection leads to high expression of each candidate which reduces the likelihood to miss an authentic target for those which may be expressed at low endogenous levels, ii. the interaction of the chemical probe with its target occurs in a relevant biological context (live cells) at a pharmacologically active concentration, and iii. immunoprecipitation allows the expressed protein of interest to be purified from background proteins, substantially improving the signal/noise ratio.

ABCA1 mRNA = ABCA1 mRNA by quantitative real-time PCR in cholesterol-loaded THP1 macrophages; format: cell-based, human; conditions: 24 h; for Effect on ABCA1 mRNA: up to 25 μM, THP1 macrophages
Procedure: RNA was isolated using RNEasy Plus Mini kit (Qiagen). Reverse transcription was performed using qScript cDNA Super Mix (Quantabio) according to the manufacturer’s instructions. Quantitative real-time PCR was performed using TaqMan Fast Universal PCR Master Mix and Taqman gene expression assays (Supplementary Table 7).

normal human fibroblasts = assay: Cholesterol efflux to apoAI in normal human fibroblasts; conditions: for Cholesterol Efflux (%), Normal Fibroblasts: efflux to apoAI, Cpd H, Cpd J 10 μM, single experiments
[2] = tested on: Tangier (ABCA1-deficient) fibroblasts; assay: Cholesterol efflux in Tangier (ABCA1-deficient) fibroblasts; conditions: for Cholesterol Efflux (%), Tangier Fibroblasts: ABCA1-deficient, Cpd H, Cpd J 10 μM, single experiments
[3] = tested on: T2, OSBPL7 single mutations in the putative ORD; assay: ^3H-Cpd K binding to OSBPL7 single mutants (cross-linking/immunoprecipitation); set-up: species or system human; conditions: K636A vs wild type
T2 construct: Plasmids expressing each as a full-length protein with a C-terminal FLAG tag were obtained; expressed in transfected cells; host or cells: HEK293
Source text: Based on the model, we identified key amino acid residues predicted to line the OSBPL7 ligand-binding pocket, and introduced a series of single mutations. Each mutant was transfected into cells and tested for ^3H-Cpd K binding. Mutation of lysine 636 to alanine reduced the ability of Cpd K to be crosslinked to OSBPL7 by ~75% (Fig. 3b). […] The homology model also predicts that a hydrophobic beta sheet lines the pocket, defined by amino acids that are conserved in the ORDs of other OSBPs (Ile641, Val616, Val618, and Lys636).
Briefly, a plasmid expressing a candidate target of interest fused with a FLAG tag was transfected into HEK293 cells. After 24 h, tritiated compound K at a concentration capable of inducing ABCA1-mediated cholesterol efflux (1.0 μM) was added for 3 h, then the live cells were exposed to UV-light (ʎ = 336 nm) to query potential compound/target cross-linking in situ. Cell lysates were prepared, the expressed protein was then selectively immunoprecipitated using an anti-FLAG antibody coupled to sepharose beads, bound proteins were separated by SDS-PAGE, and two identical blots were prepared and probed by western blot and by autoradiography to detect protein expression and presence or absence of compound crosslinking, respectively. The flow chart of this screen is illustrated in Fig. 2. […]

Col4a3 KO mice = assay: Alport syndrome model: ACR, serum creatinine, BUN, body weight (also vs ramipril); conditions: individual mouse values
[4] = 8-week old Col4a3 KO mice, 28 days treatment starting at the age of 4 weeks

Row | SMILES | ABCA1 percentage of induction, average (human THP1 macrophages) [%] | ABCA1 Efflux % (human THP1 macrophages) | ABCA1 percentage of induction (human THP1 macrophages) | Ki [1] [µM] | OSBP7 percentage of inhibition, average (OSBPL7) [%] | OSBPL7 Competition % (OSBPL7) | OSBP7 percentage of inhibition (OSBPL7) | ABCA1 Efflux active/ inactive (human THP1 macrophages) | also measured
1 | CCCCC/C=C\C/C=C\C/C=C\C/C=C\CCCC(=O)NCCCl [ACEA, arachidonyl choloroethylamine, reference compound] |  |  |  |  |  |  |  |  | ApoA1-mediated Cholesterol Efflux (Fold increase over vehicle control), mean (human THP1 macrophages): 0.962 fold; ApoA1-mediated Cholesterol Efflux (%) (human THP1 macrophages): 3% and 2.5% and 1.4%; ApoA1-mediated Cholesterol Efflux (Fold increase over vehicle control) (human THP1 macrophages): 1.047 fold and 1.044 fold and 0.796 fold; Induction of ABCA1 cholesterol efflux (human THP1 macrophages): inactive
2 | O=C(N[C@@H]1CCCC[C@H]1O)c1cnc(OCC2CC2)c(-c2ccc(Cl)cc2)c1 [Cpd H] | 106 | 106(6.8) % | 112% and 92% and 113% | 0.0114 ± 0.0045 | 55 | 55(5.0) % | 49% and 51% and 65% |  | EC50 (human THP1 macrophages): 0.12 µM; Effect on ABCA1 mRNA (ABCA1 mRNA): no effect; Cholesterol efflux to apoAI from normal fibroblasts (normal human fibroblasts): increase cholesterol efflux to apoAI from normal; Cholesterol Efflux (%), Normal Fibroblasts (normal human fibroblasts): 3.97% and 4.44% and 4.67%; Cholesterol efflux to apoAI from ABCA1-deficient fibroblasts [2]: not from ABCA1-deficient fibroblasts; Cholesterol Efflux (%), Tangier Fibroblasts [2]: 1.75% and 1.88% and 1.89%
3 | O=C(N[C@@H]1CCCC[C@H]1O)c1cnc(OCC(F)(F)F)c(-c2ccc(Cl)cc2)c1 [Cpd J] | 100 | 100(15.0) % | 83% and 130% and 87% | 0.0124 ± 0.0067 | 40 | 40(12.2) % |  |  | Effect on ABCA1 mRNA (ABCA1 mRNA): no effect; Cholesterol efflux to apoAI from normal fibroblasts (normal human fibroblasts): increase cholesterol efflux to apoAI from normal; Cholesterol Efflux (%), Normal Fibroblasts (normal human fibroblasts): 5.75% and 6.18% and 6.91%; Cholesterol efflux to apoAI from ABCA1-deficient fibroblasts [2]: not from ABCA1-deficient fibroblasts; Cholesterol Efflux (%), Tangier Fibroblasts [2]: 1.8% and 2.06% and 2.65%
4 | [N-]=[N+]=Nc1ccc(-c2cc(C(=O)N[C@@H]3CCCC[C@H]3O)cnc2OCC2CC2)cc1Cl [Cpd K, 5-(4-azido-3-chlorophenyl)-6-(cyclopropylmethoxy)-N-[(1R,2R)-2-hydroxycyclohexyl]-3-pyridine-carboxamide] | 49 | 49(10.7) % |  | 2.57 | 68 | 68(3.8) % | 62% and 75% and 68% |  | Fold reduced affinity for hCB1R ([1]; vs Cpd H): more than 200 fold; Competition for ^3H-Cpd K binding to OSBPL7 (OSBPL7; unlabeled Cpd K at 50-fold excess, Cpd A, Cpd G 10 and 50 µM): effectively competed; Reduction of binding/crosslinking to OSBPL7 by mutation K636A [3]: ~ 75%
5 | O=C(N[C@H]1CCCC[C@H]1O)c1cnc(OCC(F)(F)F)c(-c2ccc(Cl)c(Cl)c2)c1 [Cpd L] | 104 | 104(18.8) % | 94% and 77% and 140% | 7 | 53 | 53(4.7) % | 55% and 44% and 60% |  | 
6 | O=C(Nc1cnc(OCC(F)(F)F)c(-c2ccc(Cl)cc2)c1)c1cccnc1 [Cpd M] | 113 | 133(42.5) % |  | > 10 | 98 | 98(5.2) % | 107% and 97% and 89% |  | 
7 | CCCCNC(=O)CCc1ccc(-c2cc(C(=O)N[C@@H]3CCCC[C@H]3O)cnc2OCC2CC2)cc1 [Cpd N] | 24 | 24(5.0) % |  |  | 38 | 38(9.5) % |  | Inactive | 
8 | Cn1cccc(NC(=O)c2cc(-c3ccc(Cl)cc3)c(OCC(F)(F)F)cn2)c1=O [Cpd P] | 3.67 | 4(0.9) % | 4% and 5% and 2% |  | 0 | 0(0) % | 0% | Inactive | 
9 | O=C(N[C@@H]1CCCOC1=O)c1cc(-c2ccc(Cl)cc2)c(OCC(F)(F)F)cn1 [Cpd Q] | 2 | 2(0.6) % | 1% and 2% and 3% |  | 8 | 8(2.2) % | 12% and 6% and 5% | Inactive | 
10 | Cc1cc(-c2cc(NC(=O)c3cccnc3)cnc2OCC(F)(F)F)ccn1 [Cpd R] | -10 | -10(5) % |  |  | 17 | 17(5.0) % |  | Inactive | 
11 | Cc1cncc(-c2cc(NC(=O)c3cccnc3)cnc2OCC(F)(F)F)c1 [Cpd S] | 2.67 | 3(0.8) % | 1% and 3% and 4% |  | 0.333 | 0(0.3) % | 0% and 1% | Inactive | 
12 | CCOC(=O)C(CCc1ccccc1)NC(C)C(=O)N1C(C(=O)O)CC2CCCC21 (stereo not drawn) [Ramp] |  |  |  |  |  |  |  |  | BUN (Col4a3 KO mice; [4]): 33 mg/dL and 30 mg/dL and 43 mg/dL and 36 mg/dL and 26 mg/dL and 46 mg/dL and 42 mg/dL and 39 mg/dL; Serum Creatinine (Col4a3 KO mice; [4]): 1.99 µg/mL and 0.12 µg/mL and 2 µg/mL and 3.6 µg/mL and 0.9 µg/mL and 0.28 µg/mL and 1.66 µg/mL
13 | O=S(=O)(c1ccccc1)N(CC(F)(F)F)c1ccc(C(O)(C(F)(F)F)C(F)(F)F)cc1 [T1317, reference compound] |  |  |  |  |  |  |  |  | Upregulation of ABCA1 mRNA (ABCA1 mRNA; cholesterol-loaded THP1 macrophages): ~ 5 fold; Cholesterol efflux to apoAI from normal fibroblasts (normal human fibroblasts): increase cholesterol efflux to apoAI from normal; Cholesterol Efflux (%), Normal Fibroblasts (normal human fibroblasts): 5.16% and 5.7% and 5.82%; Cholesterol efflux to apoAI from ABCA1-deficient fibroblasts [2]: not from ABCA1-deficient fibroblasts; Cholesterol Efflux (%), Tangier Fibroblasts [2]: 2.04% and 2.39% and 2.47%
14 | Cc1c(C(=O)c2cccc3ccccc23)c2cccc3c2n1[C@H](CN1CCOCC1)CO3 [WIN55-212-2, reference compound] |  |  |  |  |  |  |  |  | ApoA1-mediated Cholesterol Efflux (Fold increase over vehicle control), mean (human THP1 macrophages): 0.882 fold; ApoA1-mediated Cholesterol Efflux (%) (human THP1 macrophages): 2.57% and 2.5% and 1.3%; ApoA1-mediated Cholesterol Efflux (Fold increase over vehicle control) (human THP1 macrophages): 0.895 fold and 1.016 fold and 0.735 fold; Induction of ABCA1 cholesterol efflux (human THP1 macrophages): inactive
15 | [3H]c1nc(OCC2CC2)c(-c2ccc(N=[N+]=[N-])c(Cl)c2)c([3H])c1C(=O)N[C@@H]1CCCC[C@H]1O [^3H-Cpd K] |  |  |  | 2.57 |  |  |  |  | EC50 (human THP1 macrophages): 0.2 µM; Reduction of binding/crosslinking to OSBPL7 by mutation K636A [3]: ~ 75%
16 | CCOC(=O)[C@H](CCc1ccccc1)N[C@@H](C)C(=O)N1[C@H](C(=O)O)C[C@@H]2CCC[C@@H]21 [ramipril, reference compound] |  |  |  |  |  |  |  |  | Albumin to Creatinine ratio (Col4a3 KO mice; spot urines, 8-week old Col4a3 KO mice treated from the age of 4 weeks, listed as Ram): 31.85 mg Alb. /mg Cre and 41.0281 mg Alb. /mg Cre and 31.514 mg Alb. /mg Cre and 21.7026 mg Alb. /mg Cre and 31.192 mg Alb. /mg Cre
17 | Cc1c(C(=O)NN2CCCCC2)nn(-c2ccc(Cl)cc2Cl)c1-c1ccc(Cl)cc1 [rimonabant, reference compound] | 0 | 0(0) % | 0% |  | 0 | 0(0) % | 0% | Inactive | ApoA1-mediated Cholesterol Efflux (%) (human THP1 macrophages): 3.95% and 2.4% and 1.2%; Induction of ABCA1 cholesterol efflux (human THP1 macrophages): did not induce ABCA1 cholesterol efflux
